Laboratory results published in PubChem BioAssay (NCI).
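Values below derive from 48-hour exposures of cells grown in 96-well plates, with endpoints linearly interpolated between the two concentrations bracketing the appropriate inhibition level. At the TGI there is no net growth.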

How the values were obtained:
Assay in all cases: NCI tumour cell line growth inhibition, 48 h
[1] = system: SNB-19 CNS
[2] = system: HOP-92 NSCLC
[3] = system: OVCAR-5 ovarian
[4] = system: UO-31 renal
[5] = system: M14 melanoma
[6] = system: ACHN renal
[7] = system: SF-539 CNS
[8] = system: UACC-257 melanoma
[9] = system: UACC-62 melanoma
[10] = system: NCI-H226 lung
[11] = system: NCI-H522 lung
[12] = system: NCI-H460 lung
[13] = system: CCRF-CEM leukemia
[14] = system: LXFL 529 NSCLC
[15] = system: KM12 colon
[16] = system: A498 renal
[17] = system: SNB-75 CNS
[18] = system: SNB-78 CNS
[19] = system: M19-MEL melanoma
[20] = system: OVCAR-8 ovarian
[21] = system: HOP-62 NSCLC
[22] = system: TK-10 renal
[23] = system: NCI-H23 lung
[24] = system: MOLT-4 leukemia
[25] = system: COLO 205 colon
[26] = system: U251 CNS
[27] = system: CAKI-1 renal
[28] = system: RPMI-8226 leukemia
[29] = system: K-562 leukemia
[30] = system: SW-620 colon
[31] = system: XF 498 CNS
[32] = system: IGROV1 ovarian
[33] = system: A549 NSCLC
[34] = system: SF-295 CNS
[35] = system: HCC-2998 colon
[36] = system: SN12C renal
[37] = system: 786-0 renal
[38] = system: EKVX NSCLC
[39] = system: HCT-116 colon
[40] = system: LOX IMVI melanoma
[41] = system: OVCAR-3 ovarian
[42] = system: DMS 273 small cell lung
[43] = system: DLD-1 colon
[44] = system: RXF 393 renal
[45] = system: SK-MEL-2 melanoma
[46] = system: HCT-15 colon
[47] = system: HT29 colon
[48] = system: OVCAR-4 ovarian
[49] = system: SF-268 CNS
[50] = system: MALME-3M melanoma
[51] = system: SK-OV-3 ovarian
[52] = system: SK-MEL-28 melanoma
[53] = system: KM20L2 colon
[54] = system: SK-MEL-5 melanoma
[55] = system: SR leukemia
[56] = system: HL-60(TB) leukemia

Measured: TGI

O=C1c2cccc(O)c2C(=O)c2cccc(O)c21
> 100 µM: [1] | [2] | [3] | [4] | [5] | [6] | [7] | [8] | [9] | [10] | [11] | [12] | [13] | [14] | [15] | [16] | [17] | [18] | [19] | [20] | [21] | [22] | [23] | [24] | [25] | [26] | [27] | [28] | [29] | [30] | [31] | [32] | [33] | [34] | [35] | [36] | [37] | [38] | [39] | [40] | [41] | [42] | [43] | [44] | [45] | [46] | [47] | [48] | [49]

COc1ccc(/C=c2/sc3n(c2=O)NC2(CCCCC2)NN=3)cc1
> 100 µM: [1] | [2] | [3] | [4] | [5] | [7] | [50] | [9] | [10] | [11] | [12] | [51] | [13] | [14] | [15] | [17] | [18] | [19] | [20] | [22] | [52] | [23] | [24] | [25] | [27] | [29] | [30] | [31] | [53] | [32] | [54] | [33] | [34] | [35] | [36] | [37] | [38] | [39] | [55] | [40] | [41] | [42] | [43] | [44] | [45] | [47] | [48] | [49]

O=C1CCC2(c3ccc(F)cc3)Nc3ncccc3N12 (stereo not drawn)
> 100 µM: [2] | [3] | [4] | [5] | [6] | [7] | [8] | [50] | [9] | [10] | [11] | [12] | [13] | [14] | [15] | [16] | [17] | [18] | [19] | [20] | [21] | [22] | [52] | [23] | [56] | [24] | [25] | [26] | [27] | [28] | [29] | [30] | [31] | [53] | [32] | [54] | [33] | [34] | [35] | [36] | [37] | [38] | [40] | [41] | [43] | [44] | [45] | [46] | [47] | [48] | [49]
